Measurements taken from ChEMBL document CHEMBL1201862, “PubChem BioAssay data set” (2004).
The source made the active and inactive calls.

Key:
Type in all cases: functional
[1] = target: Voltage-dependent T-type calcium channel subunit alpha-1H (Homo sapiens, UniProt O95180);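 further: channel activity triggered by adding a high calcium stimulation buffer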
[2] = target: T1, Heat shock factor protein 1 (Mus musculus, UniProt P38532); assay: decrease of HSF1-responsive luciferase luminescence – cell-based, NIH3T3, dose retest, confirmation (AID 2382);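 further: NIH3T3 fibroblasts with HSF1-driven luciferase reporter stressed by proteasome inhibitor MG132; luminescence from HSF1-driven luciferase expression after 8 hours of MG132 stress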
T1 sequence (P38532 whole entry): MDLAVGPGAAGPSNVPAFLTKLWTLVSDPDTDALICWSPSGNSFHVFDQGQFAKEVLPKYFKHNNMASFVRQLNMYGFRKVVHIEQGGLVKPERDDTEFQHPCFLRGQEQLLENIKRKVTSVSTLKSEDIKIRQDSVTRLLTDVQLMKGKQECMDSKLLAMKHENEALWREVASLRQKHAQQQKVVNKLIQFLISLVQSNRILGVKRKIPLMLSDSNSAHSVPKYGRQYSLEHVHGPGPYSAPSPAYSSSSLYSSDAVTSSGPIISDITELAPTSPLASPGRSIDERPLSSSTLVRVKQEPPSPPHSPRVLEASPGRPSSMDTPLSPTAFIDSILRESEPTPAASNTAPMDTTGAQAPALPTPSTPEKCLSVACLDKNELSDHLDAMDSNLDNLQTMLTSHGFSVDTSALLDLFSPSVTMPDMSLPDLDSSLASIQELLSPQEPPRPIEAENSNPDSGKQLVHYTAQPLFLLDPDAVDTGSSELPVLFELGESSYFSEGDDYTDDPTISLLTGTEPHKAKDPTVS

INS1 = assay: INS-1E survival protection against cytokine death – cell-based, luminescence, retest, dose response (AID 449756); details: Rattus norvegicus;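 further: cell death triggered by IL-1 beta plus TNF-alpha plus IFN-gamma mixture; protective hits raise ATP signal compared with cytokine alone wells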
[3] = reduction of Shn3 3'UTR-driven luciferase in osteoblasts – cell-based, Clone20 osteoblasts, firefly luciferase, cherry-picked, dose response (AID 624132);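 further: firefly luciferase luminescence from reporter carrying the Shn3 3'UTR in osteoblasts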
[4] = non-specific 3'UTR reporter inhibition in Clone20-Shn3RL – cell-based, Renilla luciferase, cherry-picked, counter-screen for Shn3 inhibitor project, dose response (AID 624133)
[5] = viability of PTEN-deleted HCT116 cells – cell-based, HCT116 PTEN knockout, dose response (AID 1047);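 further: HCT116 colon tumor cells with PTEN knocked out; cells exposed to compound for 60 hours before readout; potency for loss of cell viability measured by luminescence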
[6] = target: T2, Calpain-2 catalytic subunit (Sus scrofa, UniProt P43367); assay: m-calpain protease blockers, concentration series – biochemical, fluorogenic peptide substrate, dose response (AID 1420)
T2 sequence (P43367 whole entry): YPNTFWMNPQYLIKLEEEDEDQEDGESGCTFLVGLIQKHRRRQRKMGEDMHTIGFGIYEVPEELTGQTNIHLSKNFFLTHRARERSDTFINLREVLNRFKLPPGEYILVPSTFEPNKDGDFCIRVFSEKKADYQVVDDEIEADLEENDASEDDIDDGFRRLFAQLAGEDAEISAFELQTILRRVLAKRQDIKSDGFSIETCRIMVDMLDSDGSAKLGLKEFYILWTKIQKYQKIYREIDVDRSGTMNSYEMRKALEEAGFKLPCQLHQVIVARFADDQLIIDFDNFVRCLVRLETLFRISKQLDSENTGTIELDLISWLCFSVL

[7] = viability of HCT116 lacking mutant beta-catenin – cell-based, human colon tumor, dose response (AID 1045);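 further: HCT116 colon tumor cells with beta catenin knocked out; cells exposed to compound for 60 hours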
[8] = target: T3, Polyadenylate-binding protein 1 (Homo sapiens, UniProt P11940); assay: MLLE binding blockers, Cy5 peptide tracer – biochemical, fluorescence polarization, Cy5-PAM2 peptide, secondary, miRNA deadenylation inhibitor project, dose response (AID 602260); details: read-out: IC50_Mean
T3 sequence (P11940 whole entry, the tested form may be a part): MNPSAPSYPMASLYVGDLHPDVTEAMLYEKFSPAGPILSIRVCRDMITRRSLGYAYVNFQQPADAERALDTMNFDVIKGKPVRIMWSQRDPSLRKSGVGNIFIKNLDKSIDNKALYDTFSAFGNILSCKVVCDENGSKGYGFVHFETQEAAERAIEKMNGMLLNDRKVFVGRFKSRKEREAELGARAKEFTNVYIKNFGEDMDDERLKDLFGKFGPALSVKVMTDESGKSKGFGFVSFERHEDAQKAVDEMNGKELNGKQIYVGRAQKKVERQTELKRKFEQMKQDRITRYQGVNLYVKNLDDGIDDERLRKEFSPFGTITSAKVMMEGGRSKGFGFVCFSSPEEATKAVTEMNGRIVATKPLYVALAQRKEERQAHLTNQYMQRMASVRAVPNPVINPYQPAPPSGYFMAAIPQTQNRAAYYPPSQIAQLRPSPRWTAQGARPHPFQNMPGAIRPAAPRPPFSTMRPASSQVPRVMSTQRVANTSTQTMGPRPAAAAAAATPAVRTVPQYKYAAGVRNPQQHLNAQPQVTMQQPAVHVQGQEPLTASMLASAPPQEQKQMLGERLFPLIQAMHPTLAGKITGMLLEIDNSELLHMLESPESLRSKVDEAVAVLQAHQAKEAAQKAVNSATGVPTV

[9] = target: T3, Polyadenylate-binding protein 1; assay: MLLE domain peptide-binding blockers, IC50 – biochemical, fluorescence polarization, FITC-PAM2 peptide, dose response (AID 602259); details: read-out: IC50_Mean
[10] = viability of uninfected HEp-2 cells – cell-based, HTS, cytotoxicity control for RSV inhibitor project, dose response (AID 2410); details: human respiratory syncytial virus
[11] = Luminescence Cell-Based Dose Confirmation HTS to Identify Activators of 5'UTR Stem-Loop Driven Alpha-Synuclein mRNA Translation in H4 Neuroglioblastoma Cells. [Related pubchem assays: 1829 (Project Summary), 1814 (Primary HTS)]
[12] = Luminescence Cell-Based Dose Response HTS to Identify Activators of Luciferase Translation or Activity in H4 […] Cells. [Related pubchem assays: 1829 (Project Summary), 1814 (Primary HTS)]
H4 = assay: Luminescence Cell-Based Dose Response HTS to Identify Activators of 5'UTR Stem-Loop Driven Prion Protein mRNA Translation in H4 Neuroglioblastoma Cells. [Related pubchem assays: 1829 (Project Summary), 1814 (Primary HTS)]; details: Homo sapiens
[13] = target: T4, Replicative DNA helicase DnaB (Mycobacterium tuberculosis, UniProt P9WMR3); assay: DnaB intein splicing inhibitors, dose response, biochemical, cell-free fluorescence (AID 449749)
T4 sequence (P9WMR3 whole entry): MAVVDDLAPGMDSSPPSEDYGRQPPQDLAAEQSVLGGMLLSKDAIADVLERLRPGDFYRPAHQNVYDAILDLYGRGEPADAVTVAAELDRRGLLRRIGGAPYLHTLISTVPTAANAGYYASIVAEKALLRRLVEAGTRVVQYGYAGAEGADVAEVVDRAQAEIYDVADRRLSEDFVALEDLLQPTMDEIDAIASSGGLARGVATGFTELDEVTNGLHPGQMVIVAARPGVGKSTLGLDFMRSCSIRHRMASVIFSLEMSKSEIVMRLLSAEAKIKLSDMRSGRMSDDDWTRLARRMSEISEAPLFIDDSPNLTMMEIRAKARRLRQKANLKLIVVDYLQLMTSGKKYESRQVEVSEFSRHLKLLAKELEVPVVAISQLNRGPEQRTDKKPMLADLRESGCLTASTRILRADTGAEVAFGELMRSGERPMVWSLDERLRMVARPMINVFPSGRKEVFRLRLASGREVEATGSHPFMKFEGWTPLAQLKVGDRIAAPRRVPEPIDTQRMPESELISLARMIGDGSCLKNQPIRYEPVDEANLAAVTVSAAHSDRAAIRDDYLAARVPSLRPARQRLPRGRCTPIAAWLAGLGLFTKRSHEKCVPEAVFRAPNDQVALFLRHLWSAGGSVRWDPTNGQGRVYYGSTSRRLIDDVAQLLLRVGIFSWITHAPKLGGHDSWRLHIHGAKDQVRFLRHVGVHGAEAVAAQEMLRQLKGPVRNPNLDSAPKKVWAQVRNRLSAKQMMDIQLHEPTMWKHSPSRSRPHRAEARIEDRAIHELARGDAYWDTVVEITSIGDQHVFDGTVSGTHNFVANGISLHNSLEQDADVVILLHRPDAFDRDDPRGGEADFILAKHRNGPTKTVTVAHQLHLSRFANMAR

Protein RecA = target: T5, Protein RecA (Mycobacterium tuberculosis, UniProt P9WHJ3); assay: Fluorescence Cell-Free Homogeneous Dose Retest to Identify Inhibitors of RecA-Intein Splicing Activity. [Related pubchem assays (depositor defined):AID2097, AID2223, AID489010, AID492950]
T5 sequence (P9WHJ3 whole entry): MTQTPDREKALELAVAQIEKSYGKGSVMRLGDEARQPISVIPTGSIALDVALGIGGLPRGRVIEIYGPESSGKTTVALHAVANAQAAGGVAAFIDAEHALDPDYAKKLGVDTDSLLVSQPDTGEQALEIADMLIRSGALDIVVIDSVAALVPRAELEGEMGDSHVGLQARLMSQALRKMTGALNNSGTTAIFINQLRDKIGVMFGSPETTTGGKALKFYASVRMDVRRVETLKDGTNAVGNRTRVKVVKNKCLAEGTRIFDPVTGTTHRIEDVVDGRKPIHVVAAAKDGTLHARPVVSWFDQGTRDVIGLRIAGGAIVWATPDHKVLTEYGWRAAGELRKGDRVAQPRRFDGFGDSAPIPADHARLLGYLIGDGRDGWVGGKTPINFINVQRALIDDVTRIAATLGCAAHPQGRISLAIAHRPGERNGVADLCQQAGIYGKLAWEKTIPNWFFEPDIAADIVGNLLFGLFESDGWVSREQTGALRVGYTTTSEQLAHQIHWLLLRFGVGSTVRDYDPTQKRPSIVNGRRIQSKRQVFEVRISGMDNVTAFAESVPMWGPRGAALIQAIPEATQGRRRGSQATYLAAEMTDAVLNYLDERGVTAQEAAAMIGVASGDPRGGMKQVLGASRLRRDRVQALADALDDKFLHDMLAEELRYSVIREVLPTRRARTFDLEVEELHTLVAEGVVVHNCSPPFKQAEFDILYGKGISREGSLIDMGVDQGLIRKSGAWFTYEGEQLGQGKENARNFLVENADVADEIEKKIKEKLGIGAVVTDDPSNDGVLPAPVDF

Voltage-dependent T-type calcium channel subunit alpha-1H, sequence (O95180 whole entry): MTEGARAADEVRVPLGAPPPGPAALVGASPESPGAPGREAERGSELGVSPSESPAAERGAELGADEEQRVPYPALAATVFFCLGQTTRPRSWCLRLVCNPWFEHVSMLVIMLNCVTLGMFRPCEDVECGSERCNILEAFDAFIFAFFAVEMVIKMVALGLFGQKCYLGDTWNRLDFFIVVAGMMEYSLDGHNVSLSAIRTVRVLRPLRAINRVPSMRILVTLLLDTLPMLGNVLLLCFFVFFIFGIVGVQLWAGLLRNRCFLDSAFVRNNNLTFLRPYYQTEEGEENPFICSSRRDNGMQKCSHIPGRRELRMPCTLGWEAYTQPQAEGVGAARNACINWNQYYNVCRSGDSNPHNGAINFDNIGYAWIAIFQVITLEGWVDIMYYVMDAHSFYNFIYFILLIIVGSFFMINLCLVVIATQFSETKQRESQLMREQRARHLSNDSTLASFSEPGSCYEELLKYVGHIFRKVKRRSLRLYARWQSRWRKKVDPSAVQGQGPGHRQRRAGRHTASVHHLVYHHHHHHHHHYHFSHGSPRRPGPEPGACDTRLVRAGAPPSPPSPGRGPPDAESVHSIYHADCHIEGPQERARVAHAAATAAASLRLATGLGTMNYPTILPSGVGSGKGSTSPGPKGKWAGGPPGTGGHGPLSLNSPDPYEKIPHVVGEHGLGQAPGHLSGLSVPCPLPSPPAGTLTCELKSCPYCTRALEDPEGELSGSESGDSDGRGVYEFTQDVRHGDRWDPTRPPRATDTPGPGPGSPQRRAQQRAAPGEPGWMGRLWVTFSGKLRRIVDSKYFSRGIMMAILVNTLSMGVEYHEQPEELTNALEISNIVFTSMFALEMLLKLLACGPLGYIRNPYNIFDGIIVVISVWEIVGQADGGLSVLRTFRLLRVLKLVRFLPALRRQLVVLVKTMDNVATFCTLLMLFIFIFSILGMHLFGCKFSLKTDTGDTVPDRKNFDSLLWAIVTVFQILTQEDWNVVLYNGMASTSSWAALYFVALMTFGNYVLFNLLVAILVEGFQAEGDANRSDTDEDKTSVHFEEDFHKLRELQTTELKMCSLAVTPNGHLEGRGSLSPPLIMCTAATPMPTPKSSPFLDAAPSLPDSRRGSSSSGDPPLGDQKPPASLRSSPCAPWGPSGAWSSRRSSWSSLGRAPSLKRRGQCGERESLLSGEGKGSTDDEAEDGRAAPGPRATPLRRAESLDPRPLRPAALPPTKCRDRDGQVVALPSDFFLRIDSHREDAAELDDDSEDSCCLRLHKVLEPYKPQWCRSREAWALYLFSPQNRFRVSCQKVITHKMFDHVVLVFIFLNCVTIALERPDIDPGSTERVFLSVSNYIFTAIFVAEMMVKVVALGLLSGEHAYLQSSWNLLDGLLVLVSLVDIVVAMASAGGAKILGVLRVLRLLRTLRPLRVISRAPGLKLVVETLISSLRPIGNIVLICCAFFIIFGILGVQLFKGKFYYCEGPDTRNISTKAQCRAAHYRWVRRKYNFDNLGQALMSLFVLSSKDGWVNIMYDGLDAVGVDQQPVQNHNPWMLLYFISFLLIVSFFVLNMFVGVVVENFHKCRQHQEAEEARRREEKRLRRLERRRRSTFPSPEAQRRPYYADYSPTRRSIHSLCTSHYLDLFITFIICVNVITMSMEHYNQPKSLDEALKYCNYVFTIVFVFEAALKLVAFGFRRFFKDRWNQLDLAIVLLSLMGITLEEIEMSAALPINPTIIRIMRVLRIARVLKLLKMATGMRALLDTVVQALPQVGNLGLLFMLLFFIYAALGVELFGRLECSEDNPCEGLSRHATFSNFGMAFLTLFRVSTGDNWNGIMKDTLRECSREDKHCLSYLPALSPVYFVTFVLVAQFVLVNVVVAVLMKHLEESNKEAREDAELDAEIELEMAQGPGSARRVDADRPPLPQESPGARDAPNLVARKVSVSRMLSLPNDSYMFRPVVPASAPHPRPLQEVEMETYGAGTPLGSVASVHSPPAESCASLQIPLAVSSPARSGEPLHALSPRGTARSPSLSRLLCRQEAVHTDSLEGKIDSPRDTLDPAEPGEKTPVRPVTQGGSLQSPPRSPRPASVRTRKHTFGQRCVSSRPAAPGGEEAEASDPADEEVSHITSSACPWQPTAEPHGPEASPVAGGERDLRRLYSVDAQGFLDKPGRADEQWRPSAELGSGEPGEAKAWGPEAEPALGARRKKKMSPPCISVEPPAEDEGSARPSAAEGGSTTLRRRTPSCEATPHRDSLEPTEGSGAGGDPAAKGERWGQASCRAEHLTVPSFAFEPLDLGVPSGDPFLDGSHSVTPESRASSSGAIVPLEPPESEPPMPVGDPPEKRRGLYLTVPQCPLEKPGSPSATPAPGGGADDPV

## c1ccc(-c2noc(CSc3nnc(Cc4cccs4)n3-c3ccccc3)n2)cc1
[1]
  EC50: 4.16 µM (active)

## O=C(C1CCCN(S(=O)(=O)c2ccc(Cl)cc2)C1)N(Cc1cccs1)C1CC1 (centres undefined)
[2]
  EC50: > 195 µM (not active)
[1]
  EC50: 6.78 µM (active)

## CN1/C(=C\C(=O)CN2C(=O)NC3(CCCCCC3)C2=O)C(C)(C)c2ccccc21
[1]
  EC50: 27.4 µM (active)
INS1
  AC50: 4.56 µM (active)
[3]
  AC50: 2.66 µM (active)
[4]
  AC50: 12.3 µM (active)

## O=C(c1cc2sccc2n1Cc1ccccc1)N1CCCc2ccccc21
[1]
  EC50: 5.98 µM (active)

## Cc1ccccc1Cn1c(=O)n(CC2CCC(C(=O)NCCc3ccccc3)CC2)c(=O)c2ccccc21 (centres undefined)
[5]
  EC50: 13.3 µM (active)
[6]
  IC50: 20.7 µM (not active)
[7]
  EC50: 17 µM (active)

## N#CCCN(C(=O)CSc1ccc2c(c1)OCCO2)c1ccccc1
[8]
  IC50: > 66 µM (inactive)
[9]
  IC50: > 66 µM (inactive)

## CCCc1nc2ccccc2n1CCOc1ccccc1
[1]
  EC50: 8.61 µM (active)

## COc1cccc(Nc2nc(N)c([N+](=O)[O-])c(NCc3ccco3)n2)c1
[10]
  CC50: 15.8 µM (active)
[6]
  IC50: 7.89 µM (not active)

## Cn1c(CSc2nc3ccccc3s2)nc2ccccc21
[11]
  EC50: 43.2 µM (active)
[12]
  EC50: 2.94 µM (active)
H4
  EC50: 19.9 µM (active)
[1]
  EC50: 17.4 µM (active)

## CC(=O)c1c(Cl)nc2cccc3c2c1-c1ccccc1C3=O
[13]
  AC50: > 380 µM (inactive)
Protein RecA
  EC50: 0.297 µM (inconclusive)
[8]
  IC50: > 66 µM (inactive)
[9]
  IC50: 55.6 µM (inactive)
